The values below are quoted from earlier work in US20120040944A1 (APEX LABORATORIES PRIVATE LIMITED, priority 2009, published 2012).

Assay in data set [1]: not given
This is another data set of the same source.

For data set [2], the target named is T1, CYP3A4 isozyme (Homo sapiens, UniProt P08684).
T1 construct: host or cells: liver
The following applies: liver.

T1 sequence (P08684 whole entry): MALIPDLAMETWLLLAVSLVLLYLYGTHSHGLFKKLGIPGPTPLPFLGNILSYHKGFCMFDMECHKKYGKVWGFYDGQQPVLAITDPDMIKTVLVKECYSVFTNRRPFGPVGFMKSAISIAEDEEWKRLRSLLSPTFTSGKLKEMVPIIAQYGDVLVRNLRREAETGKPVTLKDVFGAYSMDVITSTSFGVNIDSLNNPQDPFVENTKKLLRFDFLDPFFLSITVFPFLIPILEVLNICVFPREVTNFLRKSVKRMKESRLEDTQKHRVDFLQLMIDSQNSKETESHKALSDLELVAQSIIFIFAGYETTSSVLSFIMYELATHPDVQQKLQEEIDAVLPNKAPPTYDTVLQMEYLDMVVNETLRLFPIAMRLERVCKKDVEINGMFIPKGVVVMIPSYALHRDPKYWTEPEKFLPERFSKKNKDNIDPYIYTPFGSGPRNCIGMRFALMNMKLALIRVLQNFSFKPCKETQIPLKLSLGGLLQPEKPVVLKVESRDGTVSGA

Consider `C[C@@H]1C[C@H]2[C@@H]3CCC4=CC(=O)C=C[C@]4(C)[C@@]3(Cl)[C@@H](O)C[C@]2(C)[C@@]1(OC(=O)c1ccco1)C(=O)CCl` [Mometasone Furoate, 9α,21-dichloro-11β,17-dihydroxy-16α-methylpregna-1,4-diene-3,20-dione 17-(2-furoate)], for which the “solubility in ethyl alcohol” value (ethyl alcohol) was “moderately soluble”. Besides, the solubility in octanol result (octanol) was “slightly soluble”. Also, under “water”, the solubility in water result is reported as “practically insoluble”. The “Terminal t½” value in data set [1] (in vivo) is “about 5 h”. Moreover, in data set [1] (inhaled dose compared with IV administration), the bioavailability entry is on record as “less than 1%”. In addition, in data set [1] (up to 7 days), the “Excretion in the feces” value is on record as 74% and the “Excretion in the urine” value is recorded as 8%. Besides, in data set [2], the metabolism entry is “primarily and extensively metabolized in the liver by the CYP3A4 isozyme”.
